Patent US6509146B1, “Scalable long-term shelf preservation of sensitive biological solutions and suspensions” (Universal Preservation Technologies, Inc., priority 1996, dated 2003)

What was measured:
[1] = Urokinase activity after foam drying and storage; type: physicochemical; conditions: 40wt % sucrose foam
Method: (6) Freezer-dried samples of Urokinase were rehydrated with 2 ml of 40wt % sucrose. The solutions were then transferred to 20 ml sterilized glass vials for future preservation by drying. Before drying, the vials were covered with gray slotted rubber stoppers. The vials were dried inside a vacuum chamber. The vials were sitting on the surface of a stainless steel shelf inside the chamber. The shelf temperature was controlled by circulating ethylene glycol/water antifreeze at a controlled temperature inside the shelf. Before the vacuum was applied the shelf temperature was decreased to 5° C. Then the hydrostatic pressure inside the chamber was decreased to 0.5 Torr. Under such a conditions the suspension boiled 30 min. […] Visually, stable dry foams inside the vials under these experimental conditions were formed during 3 hours. After an additional 12 hours of drying at room temperature, the temperature was increased to 45° C. for an additional 24 hours. After that the chamber was filled with the dry N2 gas, the rubber stoppers were pushed down and the vials were sealed with aluminum crimped seal.
The samples were assayed right after drying and after 30 days of storage at 40° C. After drying the Urokinase, activity was 93% of the initial activity. This decrease was associated with the loss of Urokinase during transformation from initial vials to the vials at which the Urokinase was dried. […]

[2] = potency of Amphotericin after foam drying and storage; type: physicochemical
Method: (7) Freeze-dried samples of Amphotericine B were rehydrated with 5 ml 40wt % sucrose per vial. Then the solutions were transferred into 50 ml sterilized glass vials for future preservation by drying. Before drying, the vials were covered with gray butyl slotted rubber stoppers. The vials were dried inside a vacuum chamber. The vials were sitting on the surface of a stainless steel shelf inside the chamber. The shelf temperature was controlled by circulating ethylene glycol/water antifreeze at a controlled temperature inside the shelf. Before the vacuum was applied the shelf temperature was decreased to 5° C. The hydrostatic pressure inside the chamber was decreased to 0.5 Torr. Under such a conditions the suspension boiled 30 min. The temperature of the shelf was then slowly (during 30 min) increased to 25° C. Visually, stable dry foams inside the vials under these experimental conditions were formed after 3 hours. After an additional 12 hours of drying at room temperature, the chamber was filled with the dry N2 gas and the rubber stoppers in a portion of the vials were pushed down. The vials were removed from the chamber and subsequently sealed with aluminum crimped seal. The samples were assayed right after drying and after 30 day of storage at 27.50 and 40° C. The results are shown in Table 1, together with the results obtained in the next experiment.
Another set of freeze-dried samples of Amphotericin B were rehydrated with 5 ml 40wt % sucrose per vial. The solutions were then transferred into sterilized glass vials for future preservation by drying similar to that described above with additional drying at 45° C. for additional 24 hours. After that, the chamber was filled again with the dry N2 gas, the rubber stoppers were pushed down and the vials were sealed. The samples were assayed right after drying and after 30 day of storage at 27.50 and 40° C.

Row | Compound | Urokinase activity, % of the initial activity ([1]; after 30 days of storage at 40° C.) | Urokinase activity, % of the initial activity ([1]; right after drying (max 45° C.)) | Potency of Amphotericin (%) ([2]; Freeze-dried control) | Potency of Amphotericin (%) After 30 days of storage at 27.5° C. ([2]; Td = 25° C.) | Potency of Amphotericin (%) After drying ([2]; Td = 25° C. (maximum temperature during drying)) | Potency of Amphotericin (%) After 30 days of storage at 27.5° C. ([2]; Td = 45° C.) | Potency of Amphotericin (%) After 30 days of storage at 40° C. ([2]; Td = 45° C.) | Potency of Amphotericin (%) After drying ([2]; Td = 45° C.)
1 | Urokinase | 90% | 93% |  |  |  |  |  | 
2 | C[C@@H]1[C@H](O)[C@@H](C)/C=C/C=C/C=C/C=C/C=C/C=C/C=C/[C@H](O[C@@H]2O[C@H](C)[C@@H](O)[C@H](N)[C@@H]2O)C[C@@H]2O[C@](O)(C[C@@H](O)C[C@@H](O)[C@H](O)CC[C@@H](O)C[C@@H](O)CC(=O)O[C@H]1C)C[C@H](O)[C@H]2C(=O)O [Amphotericin, Amphotericin B] |  |  | 126% | 114% | 108% | 102% | 104% | 103%
